Test results as given in US5236928A, “Imidazole derivatives bearing acidic functional groups at the 5-position, their compositions and methods of use as angiotensin II antagonists” (Merck & Co., Inc., priority 1992, dated 1993).

System: BALB 3T3/H-ras
Test: BALB 3T3/H-ras inhibition activity
Assay type: cell-based

Compound: CC(C)C(C)CC[C@@H](C)C1CCN=C2C3=C(CC[C@@]21C)[C@@]1(C)CC[C@H](O)CC1CC3 (stereo partly shown) [UCA1064-B]
- BALB 3T3/H-ras Inhibition Activity IC50: 3.5 µg/mL
